The values that follow come from patent US20140128461A1, “USE OF A FOOD COMPOSITION IN THE TREATMENT AND/OR PREVENTION OF NEUROPATHIC PAIN INDUCED BY AN ANTICANCER AGENT” (priority 2010, published 2014).

Series [1] deals with chronic neuropathy induced by oxaliplatin in rat. Briefly: Thermal Place Preference Test 20° C. vs. 30° C., chronic neuropathy model, preventive diet.
Description: The rats were distributed among plastic cages with 4 rats per cage. The cages were placed in an air-conditioned room at 22° C.±2° C., with controlled hygrometry (50%), a day/night 12-hour lighting cycle, and free access to food and water.
Two types of compositions were used: • a composition containing a quantity of polyamines equivalent to that present in a daily food diet (Putrescine: 54 mg/kg, Cadaverine: 37 mg/kg, Spermidine: 27 mg/kg, Spermine: 7 mg/kg), • a composition with low polyamine content comprising less than 1600 picomoles/g polyamines (Putrescine<0.01 mg/kg, Cadaverine<0.01 mg/kg, Spermidine<0.01 mg/kg, Spermine<0.01 mg/kg).
The different types of diets (diet based on a composition comprising a normal content of polyamines or PCD (Polyamine Containing Diet) and a diet based on a composition with low polyamines content called PDD (Polyamine Deficient Diet)) were given as soon as the rats arrived in the animal housing facility i.e. one week before the start of experiments.
The Thermal Place Preference Test (Bioseb®, Chaville, France) is formed of two adjacent metal plates surrounded by a chamber in opaque Plexiglas. The rat is placed in the chamber and is free to move from one plate to the other. The first plate called the <<reference plate>> is held at ambient temperature (25-30° C.) and the second plate called the <<test plate>> is held at a cold temperature. Using an infrared camera connected to a computer, the time that the animal spends on each plate is measured, together with the number of movements between the two plates. Each session lasts 3 minutes. Habituation of the animals consists of placing the rats on the apparatus for 3 minutes several times a day maintaining the two plates at a temperature of 25° C. […] Three pairs of temperatures were chosen for the experiments in relation to the model examined:
Series [2] has the same test system. Briefly: Thermal Place Preference Test 20° C. vs. 30° C., chronic neuropathy model, curative diet (PDD from D15). The conditions noted are these: rats on PCD diet.
Description: The Thermal Place Preference Test (Bioseb®, Chaville, France) is formed of two adjacent metal plates surrounded by a chamber in opaque Plexiglas. The rat is placed in the chamber and is free to move from one plate to the other. The first plate called the <<reference plate>> is held at ambient temperature (25-30° C.) and the second plate called the <<test plate>> is held at a cold temperature. Using an infrared camera connected to a computer, the time that the animal spends on each plate is measured, together with the number of movements between the two plates. Each session lasts 3 minutes. Habituation of the animals consists of placing the rats on the apparatus for 3 minutes several times a day maintaining the two plates at a temperature of 25° C.
Series [3] has as its system NR2B subunit of the NMDA receptors. Briefly: Western blot of NR2B expression and phosphorylation in the dorsal horn of the spinal cord. Type of series: in vivo, rat. The conditions noted are these: D3 after oxaliplatin 6 mg/kg ip, polyamine-containing diet, vs control animals. The method, then:
The dorsal corn of the spinal cord (L4-L6) was isolated on an ice block and immediately frozen in liquid nitrogen. The samples were then stored at −80° C. until analysis.
The tissue samples were subjected to cell lysis at 4° C. performed with 300 μL of stop buffer (50 mM Hepes, 150 mM NaCl, 10 mM EDTA, 10 mM Na2P2O7, 10 mM vanadate, 2 mM Na3VO4, 100 mM NaF, 1% Triton, 0.5 mM PMSF, 100 UI/mL Iniprol and 20 μM Leupeptine, pH 7.5). After sonication (1 to 2 minutes at 4° C.), the sample was centrifuged at 14000 rpm at 4° C. and the supernatant collected. This centrifuging step was repeated once. The supernatant contained the cytoplasmic and membrane proteins assayed by colorimetry (BC Assay UP40840A®, Interchim). […] The proteins were then transferred onto a nitrocellulose membrane (Millipore) for 2 hours in a transfer buffer (25 mM Tris, 190 mM glycine, 20% methanol, pH 8.3). The membranes were hybridised with the corresponding antibodies overnight at 4° C. […] The Western-Blots were scanned with an image analyser ChemiDoc™ XRS System, Bio-rad®) and the density of each band was quantified using computer software (Image Lab™ software, Bio-rad®)). […] The results are expressed as a percentage of the control group (non-treated group receiving a diet containing polyamines, PCD CT).
A general note: Immunoblotting shows a protein as a band on a membrane.

With `O=C1[O][Pt]2([NH][C@@H]3CCCC[C@H]3[NH]2)[O]C1=O` [oxaliplatin], the “change in time spent on the test plate (20° C.) vs control rats on PCD diet” value in series [1] (D10, p<0.001) was −42%; in series [1] (D15, p<0.001), −32%; in series [1] (D22, p<0.001), −24%; in series [1] (D29, p<0.05), −20%. Besides, the “change in time spent on the test plate (20° C.) vs control rats” value in series [2] (D4 (maximal), p<0.01) is reported as −46%; in series [2] (D39, p<0.01) it was −15%. Moreover, the “expression of the NR2B subunit” value in series [3] was “No variation”. For the same compound, in series [3], the “phosphorylation of the NR2B subunit on tyrosine sites 1472 and 1336 and serine site 1303” value is listed as “No variation”.
